{"source": "patent US20220023471A1", "about": "“PROCESS FOR DISINFECTION AND PROTECTING SURFACES FROM CONTAMINATION” (GERMINATOR MOBILE SANITIZING, LLC, priority 2020, published 2022)", "experiment_in_all_cases": "Microorganism Efficacy Test (percent reduction in culture)", "format_in_all_cases": "cell-based", "key": {"[1]": {"tested_on": "A brasiliensis ATCC 16404", "conditions": "time point 60 seconds", "protocol": "(§1) Example 1: A Microorganism Efficacy Test for Step One using Hypochlorous acid was tested against a range of different germs and bacteria to determine its efficacy. The hypochlorous acid was added to cultures of the listed microorganisms and left for the indicated amount of time. The percent reduction of each microorganism was measured after the time period had elapsed and the results are shown below in Table 1."}, "[2]": {"tested_on": "Acinetobacter baumannii ATCC 19606", "conditions": "time point 15 seconds", "protocol": "as §1"}, "[3]": {"tested_on": "C Difficile ATCC 43598", "conditions": "time point 60 seconds", "protocol": "as §1"}, "[4]": {"tested_on": "Candida albicans ATCC 1023", "conditions": "time point 60 seconds", "protocol": "as §1"}, "[5]": {"tested_on": "E. Coli ATCC 8739", "conditions": "time point 60 seconds", "protocol": "as §1"}, "[6]": {"tested_on": "Enterococcus faecalis (VRE) ATCC 51299", "conditions": "time point 15 seconds", "protocol": "as §1"}, "[7]": {"tested_on": "K. pneumonia (CRE) ATCC BAA-2146", "conditions": "time point 60 seconds", "protocol": "as §1"}, "[8]": {"tested_on": "Listeria Monocytogens ATCC 15313", "conditions": "time point 60 seconds", "protocol": "as §1"}, "[9]": {"tested_on": "Propionibacterium Acnes ATCC 6919", "conditions": "time point 60 seconds", "protocol": "as §1"}, "[10]": {"tested_on": "Proteus mirabilis ATCC7002", "conditions": "time point 15 seconds", "protocol": "as §1"}, "[11]": {"tested_on": "Pseudomonas aeruginosa ATCC 9027", "conditions": "time point 60 seconds", "protocol": "as §1"}, "[12]": {"tested_on": "S. aureus ATCC 6538", "conditions": "time point 60 seconds", "protocol": "as §1"}, "[13]": {"tested_on": "Serratia marscesens ATCC 14756", "conditions": "time point 15 seconds", "protocol": "as §1"}, "[14]": {"tested_on": "Staphylococcus arureus (MRSA) ATCC 33592", "conditions": "time point 15 seconds", "protocol": "as §1"}}, "data": [{"smiles": "OCl", "note": "[Hypochlorous acid]", "values": [{"measurement": "% REDUCTION", "setting": "[1]", "result": ">99.999", "unit": "%"}, {"measurement": "% REDUCTION", "setting": "[2]", "result": 100, "unit": "%"}, {"measurement": "% REDUCTION", "setting": "[3]", "result": ">100", "unit": "%"}, {"measurement": "% REDUCTION", "setting": "[4]", "result": ">99.9999", "unit": "%"}, {"measurement": "% REDUCTION", "setting": "[5]", "result": ">99.999", "unit": "%"}, {"measurement": "% REDUCTION", "setting": "[6]", "result": 100, "unit": "%"}, {"measurement": "% REDUCTION", "setting": "[7]", "result": ">99.9994", "unit": "%"}, {"measurement": "% REDUCTION", "setting": "[8]", "result": ">99.96", "unit": "%"}, {"measurement": "% REDUCTION", "setting": "[9]", "result": ">99.99", "unit": "%"}, {"measurement": "% REDUCTION", "setting": "[10]", "result": ">99.999", "unit": "%"}, {"measurement": "% REDUCTION", "setting": "[11]", "result": ">99.999", "unit": "%"}, {"measurement": "% REDUCTION", "setting": "[12]", "result": ">99.999", "unit": "%"}, {"measurement": "% REDUCTION", "setting": "[13]", "result": ">99.999", "unit": "%"}, {"measurement": "% REDUCTION", "setting": "[14]", "result": ">99.999", "unit": "%"}]}]}
